# Target: human RIP1 kinase domain (2-375) (Homo sapiens (Human), UniProt Q13546)
# Test: biochemical
# Format: biochemical
# Settings: tight-binding apparent inhibition constant; human RIP1 kinase domain (2-375) 50 nM, 50 uM ATP, 2 hours; read-out: Ki
# Outline: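 50 nM purified kinase domain from baculovirus-infected insect cells, incubated 2 h with compound in 50 mM Hepes pH 7.5, 30 mM MgCl2, 1 mM DTT, 50 uM ATP, 0.002% Brij-35, 0.5% DMSO. ADP formation read by Transcreener FP at 633 nm excitation. Ki^app fitted with the Morrison tight-binding equation.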
# human RIP1 kinase domain (2-375), sequence (Q13546 2-375): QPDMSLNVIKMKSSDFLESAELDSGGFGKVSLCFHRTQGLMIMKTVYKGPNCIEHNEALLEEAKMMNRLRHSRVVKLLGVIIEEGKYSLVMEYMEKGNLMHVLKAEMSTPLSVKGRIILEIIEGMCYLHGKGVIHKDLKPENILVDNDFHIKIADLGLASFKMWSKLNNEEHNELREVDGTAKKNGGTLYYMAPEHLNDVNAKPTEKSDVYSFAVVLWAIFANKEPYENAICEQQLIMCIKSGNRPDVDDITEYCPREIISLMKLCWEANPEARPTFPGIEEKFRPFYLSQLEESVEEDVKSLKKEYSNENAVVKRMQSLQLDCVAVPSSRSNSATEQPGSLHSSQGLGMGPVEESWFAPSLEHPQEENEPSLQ
row,SMILES,Ki
1,"Cn1cc(-c2cccc3nc(C(=O)N[C@H]4COc5cc(F)cc(F)c5NC4=O)nn23)cn1 [Example 421, (S)—N-(6,8-difluoro-4-oxo-2,3,4,5-tetrahydrobenzo[b][1,4]oxazepin-3-yl)-5-(1-methyl-1H-pyrazol-4-yl)-[1,2,4]triazolo[1,5-a]pyridine-2-carboxamide]",15.9 nM
2,"O=C(N[C@H]1COc2cc(F)cc(F)c2NC1=O)c1nc2cccc(C3CCOCC3)n2n1 [Example 422, (S)—N-(6,8-difluoro-4-oxo-2,3,4,5-tetrahydrobenzo[b][1,4]oxazepin-3-yl)-5-(tetrahydro-2H-pyran-4-yl)-[1,2,4]triazolo[1,5-a]pyridine-2-carboxamide]",27.4 nM
3,"Cc1cc(F)c2c(c1)OC[C@H](NC(=O)c1nc3cccc(C(C)C)n3n1)C(=O)N2 [Example 423, (S)—N-(6-fluoro-8-methyl-4-oxo-2,3,4,5-tetrahydrobenzo[b][1,4]oxazepin-3-yl)-5-isopropyl-[1,2,4]triazolo[1,5-a]pyridine-2-carboxamide]",3.4 nM
4,"CC(C)c1cccc2nc(C(=O)N[C@H]3COc4cc(F)cc(F)c4NC3=O)nn12 [Example 424, (S)—N-(6,8-difluoro-4-oxo-2,3,4,5-tetrahydrobenzo[b][1,4]oxazepin-3-yl)-5-isopropyl-[1,2,4]triazolo[1,5-a]pyridine-2-carboxamide]",3 nM
5,"Cn1cc(C2CCCc3nc(C(=O)N[C@H]4CCc5cc(F)cc(F)c5NC4=O)nn32)cn1 (stereo partly drawn) [Example 433, N—((S)-7,9-difluoro-2-oxo-2,3,4,5-tetrahydro-1H-benzo[b]azepin-3-yl)-5-(1-methyl-1H-pyrazol-4-yl)-5,6,7,8-tetrahydro-[1,2,4]triazolo[1,5-a]pyridine-2-carboxamide]",143 nM
6,"CN1C(=O)[C@@H](NC(=O)c2nc3c(-c4ccccc4)nccn3n2)COc2ccccc21 [Example 442, (S)—N-(5-methyl-4-oxo-2,3,4,5-tetrahydrobenzo[b][1,4]oxazepin-3-yl)-8-phenyl-[1,2,4]triazolo[1,5-a]pyrazine-2-carboxamide]",7.83 nM
7,"CN1C(=O)C(NC(=O)c2ncn(Cc3ccccc3)n2)CCn2nc(CN3CCOCC3)cc21 (stereo not drawn) [Example 443, 1-benzyl-N-(4-methyl-2-(morpholinomethyl)-5-oxo-5,6,7,8-tetrahydro-4H-pyrazolo[1,5-a][1,3]diazepin-6-yl)-1H-1,2,4-triazole-3-carboxamide]",299 nM
8,"CN1C(=O)[C@@H](NC(=O)c2nc3n(n2)CCNC3c2ccccc2)COc2ccccc21 (stereo partly drawn) [Example 452, N—((S)-5-methyl-4-oxo-2,3,4,5-tetrahydrobenzo[b][1,4]oxazepin-3-yl)-8-phenyl-5,6,7,8-tetrahydro-[1,2,4]triazolo[1,5-a]pyrazine-2-carboxamide]",206 nM
9,"CN1C(=O)[C@@H](NC(=O)c2nnc(Cc3ccccc3)[nH]2)CCn2nc3c(c21)CS(=O)(=O)C3 [Example 453, (S)-5-Benzyl-N-(1-methyl-9,9-dioxido-2-oxo-1,2,3,4,5,10-hexahydro-8H-thieno[3′,4′:3,4]pyrazolo[1,5-a][1,3]diazepin-3-yl)-4H-1,2,4-triazole-3-carboxamide]",301 nM
10,"CN1C(=O)C(NC(=O)c2ncn(Cc3ccccc3)n2)CCn2nc(C3CCC3)cc21 (stereo not drawn) [Example 454, 1-Benzyl-N-(2-cyclobutyl-4-methyl-5-oxo-5,6,7,8-tetrahydro-4H-pyrazolo[1,5-a][13]diazepin-6-yl)-1H-1,2,4-triazole-3-carboxamide]",46 nM
11,"CC(C)c1cc2n(n1)CCC(NC(=O)c1ncn(Cc3ccccc3)n1)C(=O)N2C (stereo not drawn) [Example 455, 1-Benzyl-N-(2-isopropyl-4-methyl-5-oxo-5,6,7,8-tetrahydro-4H-pyrazol[1,5-a][1,3]diazepin-6-yl)-1H-1,2,4-triazole-3-carboxamide]",60 nM
12,"CN1C(=O)C(NC(=O)c2ncn(Cc3ccccc3)n2)CCn2nc(CC3CC3)cc21 (stereo not drawn) [Example 456, 1-Benzyl-N-(2-(cyclopropylmethyl)-4-methyl-5-oxo-5,6,7,8-tetrahydro-4H-pyrazol[1,5-a][1,3]diazepin-6-yl)-1H-1,2,4-triazole-3-carboxamide]",51 nM
13,"CC(C)c1cc2n(n1)CC[C@H](NC(=O)c1ncn(Cc3ccccc3)n1)C(=O)N2C [Example 458, (S)-1-Benzyl-N-(2-isopropyl-4-methyl-5-oxo-5,6,7,8-tetrahydro-4H-pyrazolo[1,5-a][1,3]diazepin-6-yl)-1H-1,2,4-triazole-3-carboxamide]",10 nM
14,"CN1C(=O)[C@@H](NC(=O)c2ncn(Cc3ccccc3)n2)CCn2nc(CC3CC3)cc21 [Example 459, (S)-1-benzyl-N-(2-(cyclopropylmethyl)-4-methyl-5-oxo-5,6,7,8-tetrahydro-4H-pyrazolo[1,5-a][1,3]diazepin-6-yl)-1H-1,2,4-triazole-3-carboxamide]",7 nM
15,"CCc1cc2n(n1)CCC(NC(=O)c1ncn(Cc3ccccc3)n1)C(=O)N2C (stereo not drawn) [Example 460, 1-Benzyl-N-(2-ethyl-4-methyl-5-oxo-5,6,7,8-tetrahydro-4H-pyrazolo[1,5-a][1,3]diazepin-6-yl)-1H-1,2,4-triazole-3-carboxamide]",41 nM
16,"CC(C)Oc1cc2n(n1)CCC(NC(=O)c1ncn(Cc3ccccc3)n1)C(=O)N2C (stereo not drawn) [Example 461, 1-Benzyl-N-(2-isopropoxy-4-methyl-5-oxo-5,6,7,8-tetrahydro-4H-pyrazolo[1,5-a][1,3]diazepin-6-yl)-1H-1,2,4-triazole-3-carboxamide]",50 nM
17,"Cc1nc(C(=O)N[C@H]2CCn3nccc3N(C)C2=O)nn1Cc1ccccc1 [Example 462, (S)-1-Benzyl-5-methyl-N-(4-methyl-5-oxo-5,6,7,8-tetrahydro-4H-pyrazolo[1,5-a][1,3]diazepin-6-yl)-1H-1,2,4-triazole-3-carboxamide]",33 nM
18,"CCc1cc2n(n1)CCC(NC(=O)c1ncn(Cc3ccccc3F)n1)C(=O)N2C (stereo not drawn) [Example 463, N-(2-Ethyl-4-methyl-5-oxo-5,6,7,8-tetrahydro-4H-pyrazolo[1,5-a][1,3]diazepin-6-yl)-1-(2-fluorobenzyl)-1H-1,2,4-triazole-3-carboxamide]",45 nM
19,"CCc1cc2n(n1)CC[C@H](NC(=O)c1ncn(Cc3ccccc3F)n1)C(=O)N2C [Example 464, (S)—N-(2-ethyl-4-methyl-5-oxo-5,6,7,8-tetrahydro-4H-pyrazolo[1,5-a][1,3]diazepin-6-yl)-1-(2-fluorobenzyl)-1H-1,2,4-triazole-3-carboxamide]",14 nM
20,"CN1C(=O)[C@@H](NC(=O)c2nc3n(n2)[C@@H](c2ccccc2F)CC3)CCn2nccc21 [Example 465, (R)-5-(2-fluorophenyl)-N—((S)-4-methyl-5-oxo-5,6,7,8-tetrahydro-4H-pyrazolo[1,5-a][1,3]diazepin-6-yl)-6,7-dihydro-5H-pyrrolo[1,2-b][1,2,4]triazole-2-carboxamide]",9 nM
21,"CN1C(=O)[C@@H](NC(=O)c2nc3n(n2)[C@H](c2ccccc2F)CC3)CCn2nccc21 [Example 466, (S)-5-(2-fluorophenyl)-N—((S)-4-methyl-5-oxo-5,6,7,8-tetrahydro-4H-pyrazolo[1,5-a][1,3]diazepin-6-yl)-6,7-dihydro-5H-pyrrolo[1,2-b][1,2,4]triazole-2-carboxamide]",803 nM
22,"CN1C(=O)[C@@H](NC(=O)c2nc3n(n2)[C@H](c2ccccc2F)CC3)COc2ccccc21 [Example 467, (S)-5-(2-fluorophenyl)-N—((S)-5-methyl-4-oxo-2,3,4,5-tetrahydrobenzo[b][1,4]oxazepin-3-yl)-6,7-dihydro-5H-pyrrolo[1,2-b][1,2,4]triazole-2-carboxamide]",57 nM
23,"CN1C(=O)[C@@H](NC(=O)c2nc3n(n2)[C@@H](c2ccccc2F)CC3)COc2ccccc21 [Example 468, (R)-5-(2-fluorophenyl)-N—((S)-5-methyl-4-oxo-2,3,4,5-tetrahydrobenzo[b][1,4]oxazepin-3-yl)-6,7-dihydro-5H-pyrrolo[1,2-b][1,2,4]triazole-2-carboxamide]",4 nM
24,"CN1C(=O)[C@@H](NC(=O)c2ncc3n2CC(CC(F)(F)F)CC3)COc2ccccc21 (stereo partly drawn) [Example 469, N-[(3S)-5-methyl-4-oxo-2,3-dihydro-1,5-benzoxazepin-3-yl]-6-(2,2,2-trifluoroethyl)-5,6,7,8-tetrahydroimidazo[1,5-a]pyridine-3-carboxamide]",1000 nM
25,CN1C(=O)[C@@H](NC(=O)c2ncn(CC3CCCO3)n2)CCn2nc(C3CC3)cc21 (stereo partly drawn) [Example 470],2400 nM
26,"Cc1cc2n(n1)CC[C@H](NC(=O)c1ncn(Cc3cccc(Cl)c3Cl)n1)C(=O)N2C [Example 472, 1-[(2,3-dichlorophenyl)methyl]-N-(6S)-2,4-dimethyl-5-oxo-7,8-dihydro-6H-pyrazolo[1,5-a][1,3]diazepin-6-yl-1,2,4-triazole-3-carboxamide]",5.1 nM
27,"Cc1cc2n(n1)CC[C@H](NC(=O)c1ncn(Cc3ccc(Cl)cc3Cl)n1)C(=O)N2C [Example 473, 1-[(2,4-dichlorophenyl)methyl]-N-[(6S)-2,4-dimethyl-5-oxo-7,8-dihydro-6H-pyrazolo[1,5-a][1,3]diazepin-6-yl]-1,2,4-triazole-3-carboxamide]",7.8 nM
28,"Cc1cc2n(n1)CC[C@H](NC(=O)c1ncn(CC3CCCO3)n1)C(=O)N2C (stereo partly drawn) [Example 474, N-(6S)-2,4-dimethyl-5-oxo-7,8-dihydro-6H-pyrazolo[1,5-a][1,3]diazepin-6-yl-1-(tetrahydrofuran-2-ylmethyl)-1,2,4-triazole-3-carboxamide]",1300 nM
29,"Cc1cc2n(n1)CC[C@H](NC(=O)c1ncn(CC3CCCOC3)n1)C(=O)N2C (stereo partly drawn) [Example 475, N-(6S)-2,4-dimethyl-5-oxo-7,8-dihydro-6H-pyrazolo[1,5-a][1,3]diazepin-6-yl-1-(tetrahydropyran-3-ylmethyl)-1,2,4-triazole-3-carboxamide]",360 nM
30,"Cc1cc2n(n1)CC[C@H](NC(=O)c1ncn(CC3CCCCO3)n1)C(=O)N2C (stereo partly drawn) [Example 476, N-(6S)-2,4-dimethyl-5-oxo-7,8-dihydro-6H-pyrazolo[1,5-a][1,3]diazepin-6-yl-1-(tetrahydropyran-2-ylmethyl)-1,2,4-triazole-3-carboxamide]",310 nM
